# Measured values published in article PMC10658920 (The Journal of Pharmacology and Experimental Therapeutics, 2023).
# Where “and” joins values, the source holds several entries; their conditions need not be identical. Equal values may be shown once. Entries after “also recorded” stand apart in the source; their conditions may differ. Read-outs that look alike come from different tables or passages of the source.
# Key:
# [1] = Dissolution of goldenseal capsules in FaSSIF; assay type: physicochemical; conditions: two goldenseal capsules in 250 ml FaSSIF, within 20 minutes
# [2] = Apparent permeability, apical to basolateral, Caco-2 cell monolayers; assay type: in vitro ADME; conditions: human
# [3] = both, human, in vivo
# CYP3A [4] = conditions: HLMs, 2020, cited from earlier work
# CYP3A [5] = conditions: cited from earlier work
# clinical = conditions: both, human, in vivo, AUC0–12.5h, Observed
# CYP3A [6] = assay: Allosterism of midazolam hydroxylation in HIMs by berberine; conditions: for effect on 1’-hydroxymidazolam formation: reversible design
# [7] = Time-dependent inhibition of midazolam 1’-hydroxylation in HIMs; conditions: microsomal incubation mixture, 37 °C, aqueous buffer, kinetic from dmso stock
# CYP3A [8] = assay: as above; conditions: HIMs
# [9] = Clinical pharmacokinetic study, plasma and urine, noncompartmental analysis; conditions: for tmax: median [range]
# CYP3A [10] = assay: IC50 shift experiment, midazolam 1’-hydroxylation in human intestinal microsomes
# [11] = Baseline: oral midazolam 2.5 mg alone; median [range]; ref Nguyen et al., 2021; cited from earlier work
# [12] = 6-hour blood collection, ref Gurley et al., 2008
# [13] = Baseline: oral midazolam 2.5 mg alone, geometric mean [90% CI]
smiles,measurement,setting,value
COc1ccc2cc3[n+](cc2c1OC)CCc1cc2c(cc1-3)OCO2 [berberine],total content dissolved,[1],More than 80%
same,Papp at 10 μM,[2],0.18 ×10⁻⁶ cm/s
same,"AUC0–12.5h, Observed",[3],7.81 [6.17–9.89] nM*h
same,"TDI of CYP3A activity (midazolam 1’-hydroxylation), in words","CYP3A [4]; ref Chatterjee and Franklin, 2003, McDonald et al.",demonstrated TDI
same,IC50 (reversible inhibition),CYP3A [4]; ref McDonald et al.,unattainable
same,kinact/KI,CYP3A [4]; ref McDonald et al.,21.7 M⁻¹ s⁻¹
same,increase in midazolam AUC,"CYP3A [5]; berberine 300 mg thrice daily × 14 days, ref Guo et al., 2012",40%
same,AUC(0-t),clinical,4.58 nM·h
same,effect on midazolam 4-hydroxylation,CYP3A [6]; berberine 5–100 μM,inhibited
same,effect on 1’-hydroxymidazolam/4-hydroxymidazolam ratio,CYP3A [6]; particularly at midazolam ≤5 μM,concentration-dependent increase
same,effect on 1’-hydroxymidazolam formation,CYP3A [6]; midazolam ≤5 μM,activated
same,effect on 1’-hydroxymidazolam formation,CYP3A [6]; midazolam ≥50 μM,inhibited
same,solubility,[7],≤ 500 µM
same,inhibition of midazolam 1’-hydroxylation (in words),CYP3A [8],concentration-dependent and time-dependent inhibition
same,kinact/KI,CYP3A [8],4.07 M⁻¹ s⁻¹ and ~4 M⁻¹ s⁻¹
same,KI,CYP3A [8]; time-dependent inhibition of midazolam 1’-hydroxylation,> 250 µM and 250 µM
same,kinact,"CYP3A [8]; human, human intestinal microsomes, probe midazolam (40 μM), 1'-hydroxylation, kinact, time-dependent inhibition of midazolam 1’-hydroxylation",~0.001 s⁻¹
same,AUC(0-inf),"[9]; both, human, plasma, oral",46.7 nM·h
same,leftward shift in IC50 after preincubation with NADPH,CYP3A [10]; HIMs,not observed
same,"IC50, midazolam 1’-hydroxylation","CYP3A [10]; HIMs 0.05 mg/ml, 30 min preincubation in absence of NADPH, 4 μM midazolam",apparent activation; also recorded: unattainable
Cc1ncc2n1-c1ccc(Cl)cc1C(c1ccccc1F)=NC2 [Midazolam],tmax,[11],0.67 [0.33–1.00] h
same,midazolam half-life at baseline,CYP3A [5]; [12],2.0 h
same,midazolam half-life in the presence of goldenseal,CYP3A [5]; [12],3.1 h
same,CL renal,"[9]; both, human, plasma and urine, po",1.08 mL/min
"Cc1ncc2n1-c1ccc(Cl)cc1C(c1ccccc1F)=NC2O (centres unmarked) [4-Hydroxymidazolam, 4-hydroxymidazolam]",CLR,[9]; [13],Concentrations of metabolites in urine were below the detectable limit
same,MP ratio (metabolite AUC0–12h to midazolam AUC0–12h),[9]; [13],0.045 [0.039–0.051]
same,AUC(0-t),"[9]; both, human, plasma, po, 2.5 mg, AUC0–12h, Baseline: oral midazolam 2.5 mg alone, geometric mean [90% CI]",2.78 nM·h
same,half-life,"[9]; both, human, plasma, po, 2.5 mg, t1/2, Baseline: oral midazolam 2.5 mg alone, geometric mean [90% CI]",1.68 h
same,tmax,"[9]; both, human, plasma, po, 2.5 mg, tmax, Baseline: oral midazolam 2.5 mg alone",1 h
same,tmax,"[9]; both, human, plasma, po, tmax, Chronic exposure: goldenseal 1 g thrice daily for 6 days, midazolam 2.5 mg oral",1 h
"OCc1ncc2n1-c1ccc(Cl)cc1C(c1ccccc1F)=NC2 [1’-Hydroxymidazolam, 1’-hydroxymidazolam]",AUC0–12h,[9]; [13],29.0 [24.4–34.4] nM*h
same,AUCinf,[9]; [13],33.1 [27.9–39.0] nM*h
same,CLR,[9]; [13],0.17 [0.14–0.20] n = 15 l/h
same,Cmax,[9]; [13],12.3 nM
same,MP ratio (metabolite AUC0–12h to midazolam AUC0–12h),[9]; [13],0.47 [0.40–0.54]
same,t1/2,[9]; [13],6.25 [5.27–7.40] h
same,tmax,[9]; Baseline: oral midazolam 2.5 mg alone,0.67 [0.33–1.00] h
same,tmax,"[9]; Chronic exposure: goldenseal 1 g thrice daily for 6 days, midazolam 2.5 mg oral",0.67 [0.33–1.50] h
